Measurements taken from ChEMBL document CHEMBL1142074, “In vitro activities of cloxyquin (5-chloroquinolin-8-ol) against Mycobacterium tuberculosis” (2007).

Tests used:
Assay type in all cases: functional
[1] = tested on: Mycobacterium tuberculosis; assay: Antimycobacterial activity against ethambutol-resistant Mycobacterium tuberculosis H37Rv ATCC 35837 by microplate alamar blue assay
[2] = tested on: Mycobacterium tuberculosis; assay: Antimycobacterial activity against kanamycin-resistant Mycobacterium tuberculosis H37Rv ATCC 35827 by microplate alamar blue assay
[3] = tested on: Mycobacterium tuberculosis; assay: Antimycobacterial activity against ethionamide-resistant Mycobacterium tuberculosis H37Rv ATCC 35830 by microplate alamar blue assay
[4] = tested on: Mycobacterium tuberculosis; assay: Antimycobacterial activity against cycloserine-resistant Mycobacterium tuberculosis H37Rv ATCC 35826 by microplate alamar blue assay
[5] = tested on: Mycobacterium tuberculosis; assay: Antimycobacterial activity against thiacetazone-resistant Mycobacterium tuberculosis H37Rv ATCC 35829 by microplate alamar blue assay
[6] = tested on: Mycobacterium tuberculosis; assay: Antimycobacterial activity against pyrazinamide-resistant Mycobacterium tuberculosis H37Rv ATCC 35828 by microplate alamar blue assay

Measured: MIC

Oc1ccc(Cl)c2cccnc12 [CLOXYQUIN]
0.125 µg/mL: all assays above
